Measurements reported in US20210253557A1, “SUBSTITUTED TRIAZOLE DERIVATIVES AND USES THEREOF” (Bayer Pharma Aktiengesellschaft, priority 2017, published 2021).
Where a name gives a salt, the structure may show the parent alone.

How the values were obtained:
human V1a receptor = target: T1, human V1a receptor (Homo sapiens, UniProt P37288); experiment: Cellular in vitro assay for determining vasopressin receptor activity (V1a, aequorin luminescence); assay type: cell-based; settings: for IC50: CHO cell line transfected with the human V1a receptor, [Arg8]-vasopressin at EC50 concentration, read-out: IC50 hV1a; for ratio IC50 hV2/hV1a: selectivity ratio of IC50 hV2 to IC50 hV1a
T1 construct: expressed in transfected cells; host or cells: CHO K1 (ATCC), also stably transfected with a modified aequorin
T1 sequence (P37288 whole entry): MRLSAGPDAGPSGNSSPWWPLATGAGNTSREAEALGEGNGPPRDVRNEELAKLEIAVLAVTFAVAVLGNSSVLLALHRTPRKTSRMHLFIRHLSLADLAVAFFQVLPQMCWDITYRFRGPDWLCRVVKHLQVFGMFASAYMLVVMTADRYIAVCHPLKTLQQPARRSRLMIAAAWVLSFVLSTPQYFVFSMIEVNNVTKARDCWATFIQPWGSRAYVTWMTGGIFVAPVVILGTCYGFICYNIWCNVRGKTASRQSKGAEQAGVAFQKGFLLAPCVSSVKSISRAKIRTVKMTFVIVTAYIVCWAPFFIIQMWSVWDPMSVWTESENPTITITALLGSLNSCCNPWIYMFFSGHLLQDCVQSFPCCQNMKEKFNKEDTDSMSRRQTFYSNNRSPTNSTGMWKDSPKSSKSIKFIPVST

human V2 receptor = target: T2, human V2 receptor (Homo sapiens, UniProt P30518); experiment: Cellular in vitro assay for determining vasopressin receptor activity (V2, CRE-luciferase); assay type: cell-based; settings: CHO cell line transfected with the human V2 receptor; [Arg8]-vasopressin at EC50 concentration; read-out: IC50 hV2
T2 construct: expressed in transfected cells; host or cells: CHO K1 (ATCC) expressing firefly luciferase under a CRE-responsive promoter
T2 sequence (P30518 whole entry): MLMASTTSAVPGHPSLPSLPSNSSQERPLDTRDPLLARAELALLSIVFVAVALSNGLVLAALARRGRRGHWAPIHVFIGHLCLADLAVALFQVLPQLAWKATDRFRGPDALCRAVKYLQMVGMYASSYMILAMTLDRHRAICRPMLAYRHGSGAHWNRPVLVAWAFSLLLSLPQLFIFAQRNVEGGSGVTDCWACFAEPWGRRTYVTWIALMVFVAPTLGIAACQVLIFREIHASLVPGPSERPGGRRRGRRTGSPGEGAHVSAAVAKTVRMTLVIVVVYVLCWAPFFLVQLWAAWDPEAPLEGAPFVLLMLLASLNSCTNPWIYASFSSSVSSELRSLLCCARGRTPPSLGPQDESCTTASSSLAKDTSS
Procedure, shortened: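 CHO K1 cells stably expressing the human V2 receptor and a CRE-driven firefly luciferase were plated the day before in DMEM/F12 with 2% FCS. Test compounds were added together with [Arg8]-vasopressin at its EC50 and incubated 3 h at 37 °C. Luciferase luminescence was read after Triton lysis and luciferin addition, giving IC50 values.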

Row | SMILES | IC50 (human V1a receptor) [nM] | ratio IC50 hV2/hV1a (human V1a receptor) | IC50 (human V2 receptor) [nM]
1 | C[C@@H](OC(N)=O)c1nc(Cn2nc(-c3ccc(Cl)cc3)n(C[C@H](O)C(F)(F)F)c2=O)nn1-c1cccc(Cl)c1 [Example 36, (1R)-1-[1-(3-Chlorophenyl)-3-({3-(4-chlorophenyl)-5-oxo-4-[(2S)-3,3,3-trifluoro-2-hydroxypropyl]-4,5-dihydro-1H-1,2,4-triazol-1-yl}methyl)-1H-1,2,4-triazol-5-yl]ethyl Carbamate] | 28.6 | 0.1 | 1.81
2 | Cc1ccccc1-n1nc(Cn2nc(-c3ccc(Cl)cc3)n(C[C@H](O)C(F)(F)F)c2=O)nc1COC(N)=O [Example 37, [3-({3-(4-Chlorophenyl)-5-oxo-4-[(2S)-3,3,3-trifluoro-2-hydroxypropyl]-4,5-dihydro-1H-1,2,4-triazol-1-yl}methyl)-1-(2-methylphenyl)-1H-1,2,4-triazol-5-yl]methyl Carbamate] | 0.77 | 8.6 | 6.62
3 | Cc1ccccc1-n1nc(Cn2nc(-c3ccc(Cl)cc3)n(C[C@H](OC(N)=O)C(F)(F)F)c2=O)nc1COC(N)=O [Example 38, (2S)-3-[1-({5-[(Carbamoyloxy)methyl]-1-(2-methylphenyl)-1H-1,2,4-triazol-3-yl}methyl)-3-(4-chlorophenyl)-5-oxo-1,5-dihydro-4H-1,2,4-triazol-4-yl]-1,1,1-trifluoropropan-2-yl Carbamate] | 0.65 | 5.5 | 3.56
4 | CCNC(=O)OCc1nc(Cn2nc(-c3ccc(Cl)cc3)n(C[C@H](O)C(F)(F)F)c2=O)nn1-c1cccc(F)c1 [Example 43, [3-({3-(4-Chlorophenyl)-5-oxo-4-[(2S)-3,3,3-trifluoro-2-hydroxypropyl]-4,5-dihydro-1H-1,2,4-triazol-1-yl}methyl)-1-(3-fluorophenyl)-1H-1,2,4-triazol-5-yl]methyl Ethylcarbamate] | 5.59 | 1.1 | 5.93
5 | COCCNC(=O)OCc1nc(Cn2nc(-c3ccc(Cl)cc3)n(C[C@H](O)C(F)(F)F)c2=O)nn1-c1cccc(F)c1 [Example 44, [3-({3-(4-Chlorophenyl)-5-oxo-4-[(2S)-3,3,3-trifluoro-2-hydroxypropyl]-4,5-dihydro-1H-1,2,4-triazol-1-yl}methyl)-1-(3-fluorophenyl)-1H-1,2,4-triazol-5-yl]methyl (2-methoxyethyl)carbamate] | 27.6 | 0.3 | 7.98
6 | O=C(NCC(F)(F)F)OCc1nc(Cn2nc(-c3ccc(Cl)cc3)n(C[C@H](O)C(F)(F)F)c2=O)nn1-c1cccc(F)c1 [Example 45, [3-({3-(4-Chlorophenyl)-5-oxo-4-[(2S)-3,3,3-trifluoro-2-hydroxypropyl]-4,5-dihydro-1H-1,2,4-triazol-1-yl}methyl)-1-(3-fluorophenyl)-1H-1,2,4-triazol-5-yl]methyl (2,2,2-trifluoroethyl)-carbamate] | 11.2 | 0.5 | 5.13
7 | CNC(=O)OCc1nc(Cn2nc(-c3ccc(Cl)cc3)n(C[C@H](O)C(F)(F)F)c2=O)nn1-c1cccc(F)c1 [Example 46, [3-({3-(4-Chlorophenyl)-5-oxo-4-[(2S)-3,3,3-trifluoro-2-hydroxypropyl]-4,5-dihydro-1H-1,2,4-triazol-1-yl}methyl)-1-(3-fluorophenyl)-1H-1,2,4-triazol-5-yl]methyl Methylcarbamate] | 6.47 | 1.5 | 9.36
8 | CCNC(=O)OCc1nc(Cn2nc(-c3ccc(Cl)cc3)n(C[C@H](O)C(F)(F)F)c2=O)nn1-c1ccccc1Cl [Example 47, [1-(2-Chlorophenyl)-3-({3-(4-chlorophenyl)-5-oxo-4-[(2S)-3,3,3-trifluoro-2-hydroxypropyl]-4,5-dihydro-1H-1,2,4-triazol-1-yl}methyl)-1H-1,2,4-triazol-5-yl]methyl Ethylcarbamate] | 0.43 | 16.6 | 7.16
9 | COCCNC(=O)OCc1nc(Cn2nc(-c3ccc(Cl)cc3)n(C[C@H](O)C(F)(F)F)c2=O)nn1-c1ccccc1Cl [Example 48, [1-(2-Chlorophenyl)-3-({3-(4-chlorophenyl)-5-oxo-4-[(2S)-3,3,3-trifluoro-2-hydroxypropyl]-4,5-dihydro-1H-1,2,4-triazol-1-yl}methyl)-1H-1,2,4-triazol-5-yl]methyl (2-methoxyethyl)carbamate] | 1.12 | 5.3 | 5.91
10 | CCNC(=O)OCc1nc(Cn2nc(-c3ccc(Cl)cc3)n(C[C@H](O)C(F)(F)F)c2=O)nn1-c1ccccc1C(F)(F)F [Example 49, {3-({3-(4-Chlorophenyl)-5-oxo-4-[(2S)-3,3,3-trifluoro-2-hydroxypropyl]-4,5-dihydro-1H-1,2,4-triazol-1-yl}methyl)-1-[2-(trifluoromethyl)phenyl]-1H-1,2,4-triazol-5-yl}methyl ethylcarbamate] | 0.99 | 16.9 | 16.7
11 | CCNC(=O)OCc1nc(Cn2nc(-c3ccc(Cl)cc3)n(C[C@H](OC(=O)NCC)C(F)(F)F)c2=O)nn1-c1ccccc1C(F)(F)F [Example 50, (2S)-3-{3-(4-Chlorophenyl)-1-[(5-{[(ethylcarbamoyl)oxy]methyl}-1-[2-(trifluoromethyl)phenyl]-1H-1,2,4-triazol-3-yl)methyl]-5-oxo-1,5-dihydro-4H-1,2,4-triazol-4-yl}-1,1,1-trifluoropropan-2-yl ethylcarbamate] | 0.95 | 23.0 | 22
12 | COCCNC(=O)OCc1nc(Cn2nc(-c3ccc(Cl)cc3)n(C[C@H](O)C(F)(F)F)c2=O)nn1-c1ccccc1C(F)(F)F [Example 51, {3-({3-(4-Chlorophenyl)-5-oxo-4-[(2S)-3,3,3-trifluoro-2-hydroxypropyl]-4,5-dihydro-1H-1,2,4-triazol-1-yl}methyl)-1-[2-(trifluoromethyl)phenyl]-1H-1,2,4-triazol-5-yl}methyl (2-methoxyethyl)-carbamate] | 3.9 | 7.6 | 29.7
13 | NC(=O)OCc1nc(Cn2nc(-c3ccc(Cl)cc3)n(C[C@H](O)C(F)(F)F)c2=O)nn1-c1ccccc1C(F)(F)F [Example 52, {3-({3-(4-Chlorophenyl)-5-oxo-4-[(2S)-3,3,3-trifluoro-2-hydroxypropyl]-4,5-dihydro-1H-1,2,4-triazol-1-yl}methyl)-1-[2-(trifluoromethyl)phenyl]-1H-1,2,4-triazol-5-yl}methyl Carbamate] | 2.15 | 6.5 | 14
14 | C[C@H](NC(=O)OC(C)(C)C)c1nc(Cn2nc(-c3ccc(Cl)cc3)n(C[C@H](O)C(F)(F)F)c2=O)nn1-c1cccc(Cl)c1 [Example 56, tert-Butyl {(1S)-1-[1-(3-chlorophenyl)-3-({3-(4-chlorophenyl)-5-oxo-4-[(2S)-3,3,3-trifluoro-2-hydroxypropyl]-4,5-dihydro-1H-1,2,4-triazol-1-yl}methyl)-1H-1,2,4-triazol-5-yl]ethyl}Carbamate] | 286 | 0.1 | 33.4
15 | C[C@H](N)c1nc(Cn2nc(-c3ccc(Cl)cc3)n(C[C@H](O)C(F)(F)F)c2=O)nn1-c1cccc(Cl)c1 [Example 57, 2-({5-[(1S)-1-Aminoethyl]-1-(3-chlorophenyl)-1H-1,2,4-triazol-3-yl}methyl)-5-(4-chlorophenyl)-4-[(2S)-3,3,3-trifluoro-2-hydroxypropyl]-2,4-dihydro-3H-1,2,4-triazol-3-one hydrochloride] | 13.1 | 0.1 | 1.28
16 | COC(=O)N[C@@H](C)c1nc(Cn2nc(-c3ccc(Cl)cc3)n(C[C@H](O)C(F)(F)F)c2=O)nn1-c1cccc(Cl)c1 [Example 58, Methyl {(1S)-1-[1-(3-chlorophenyl)-3-({3-(4-chlorophenyl)-5-oxo-4-[(2S)-3,3,3-trifluoro-2-hydroxypropyl]-4,5-dihydro-1H-1,2,4-triazol-1-yl}methyl)-1H-1,2,4-triazol-5-yl]ethyl}Carbamate] | 21.4 | 0.1 | 1.95
17 | NC1(c2nc(Cn3nc(-c4ccc(Cl)cc4)n(C[C@H](O)C(F)(F)F)c3=O)nn2-c2ccccc2Cl)CC1 [Example 76, 2-{[5-(1-Aminocyclopropyl)-1-(2-chlorophenyl)-1H-1,2,4-triazol-3-yl]methyl}-5-(4-chlorophenyl)-4-[(2S)-3,3,3-trifluoro-2-hydroxypropyl]-2,4-dihydro-3H-1,2,4-triazol-3-one hydrochloride] | 0.48 | 8.3 | 3.95
18 | CC(=O)NC1(c2nc(Cn3nc(-c4ccc(Cl)cc4)n(C[C@H](O)C(F)(F)F)c3=O)nn2-c2ccccc2Cl)CC1 [Example 77, N-{1-[1-(2-Chlorophenyl)-3-({3-(4-chlorophenyl)-5-oxo-4-[(2S)-3,3,3-trifluoro-2-hydroxypropyl]-4,5-dihydro-1H-1,2,4-triazol-1-yl}methyl)-1H-1,2,4-triazol-5-yl]cyclopropyl}acetamide] | 6.5 | 52.3 | 340
19 | CS(=O)(=O)NC1(c2nc(Cn3nc(-c4ccc(Cl)cc4)n(C[C@H](O)C(F)(F)F)c3=O)nn2-c2ccccc2Cl)CC1 [Example 78, N-{1-[1-(2-Chlorophenyl)-3-({3-(4-chlorophenyl)-5-oxo-4-[(2S)-3,3,3-trifluoro-2-hydroxypropyl]-4,5-dihydro-1H-1,2,4-triazol-1-yl}methyl)-1H-1,2,4-triazol-5-yl]cyclopropyl}methane sulfonamide] | 1.1 | 8.8 | 9.7
